Results from patent US20100129434A1, “COMPOSITIONS AND METHODS FOR THE TREATMENT OF MUCORMYCOSIS AND OTHER FUNGAL DISEASES” (priority 2006, published 2010).
Converted amounts (≈) assume the structure as drawn. Read-outs that look alike come from different tables or passages of the source.

Key:
[1] = system: Mucor spp.; assay: Deferasirox susceptibility testing (MIC/MFC), Mucor clinical isolates; type: cell-based
Procedure: Minimum inhibitory concentration (MIC) and minimum fungicidal concentration (MFC) were determined for deferasirox by the method of Espinel-Ingroff using R. oryzae spores starved for iron (Espinel-Ingroff, (2001), supra). Cidality was defined as a <4-fold difference between MIC and MFC.
We next determined the deferasirox susceptibilities of multiple clinical isolates of Mucorales (Table 3). The MIC9OS of deferasirox against Mucor, non-oryzae Rhizopus spp., and R. oryzae were 3.12 to 6.25 μg/ml. MFCs were similar to MICs, and deferasirox was cidal for 28/29 (97%) of isolates. Of note, slight growth was seen within the first twelve hours even at extremely high concentrations of deferasirox. […] Furthermore, the MICs and MFCs of deferasirox against these isolates were well below clinically achievable peak (˜38 μg/ml) and trough serum levels (˜17 μg/ml) of the drug at steady state when administered at the FDA-approved starting dose (20 mg/kg/d).

[2] = system: R. oryzae; assay: Tissue fungal burden of DKA mice infected with R. oryzae; type: in vivo, BALB/c male mice
Procedure: Briefly, for in vivo infection, BALB/c male mice (>20 g) were rendered diabetic with a single i.p. injection of 210 mg/kg streptozotocin in 0.2 ml citrate buffer 10 days prior to fungal challenge. […] Mice were infected through the tail vein with the appropriate inocula of R. oryzae. To confirm the inocula, dilutions were streaked on PDA plates and colonies were counted following a 24 h incubation period at room temperature. The primary efficacy endpoint was time to death. As a secondary endpoint, brain fungal burden (the primary target organ) was determined by homogenization by rolling a pipette on organs placed in Whirl-Pak bags (Nasco, Fort Atkinson, Wis.) containing 2 ml saline. The homogenate was serially diluted in 0.85% saline and then quantitatively cultured on PDA. Values were expressed as log 10 cfu g^−1 tissue. All procedures involving mice were approved by the institutional animal use and care committee, following the National Institutes of Health guidelines for animal housing and care.
For in vivo infection, BALB/c male mice (>20 g) were rendered diabetic with a single i.p. injection of 210 mg/kg streptozotocin in 0.2 ml citrate buffer 10 days prior to fungal challenge. […] For neutropenic mouse model, mice were injected with a single i.p. dose of 200 mg/kg cyclolphosphamide (Bristol Myer Squibb) 2 days prior to infection with R. oryzae. […] Mice were infected through the tail vein with the appropriate inocula of R. oryzae. To confirm the inocula, dilutions were streaked on PDA plates containing 0.1% triton and colonies were counted following a 24 h incubation period at 37° C. The primary efficacy endpoint was time to death. As a secondary endpoint, brain fungal burden (the primary target organ) was determined by homogenization by rolling a pipette on organs placed in Whirl-Pak™ bags (Nasco®, Fort Atkinson, Wis.) containing 1 ml saline. The homogenate was serially diluted in 0.85% saline and then quantitatively cultured on PDA. Values were expressed as log10 cfu g−1 tissue. Finally, for histopathological analysis, infected organs were collected from mice and fixed in 10% zinc formalin. Fixed tissues were embedded in paraffin, and […] sections were stained with haematoxylin and eosin for light microscopy examination. All procedures involving mice were approved by the institutional animal use and care committee, following the National Institutes of Health guidelines for animal housing and care.

[3] = 4.2×10^4 spores R. oryzae 99-892, 10 mg/kg bid, 3 days, vs placebo or deferasirox plus saturating ferric chloride

For `O=C(O)c1ccc(-n2nc(-c3ccccc3O)nc2-c2ccccc2O)cc1` [Deferasirox, 4-[3,5-Bis(2-hydroxyphenyl)-1H-1,2,4-triazol-1-yl]-benzoic acid], the “Fungicidal?” value ([1]; Mucor 97-1083, 24 h) was “Y (Cidal = MFC/MIC ≦ 4)”, the “Fungicidal?” value ([1]; Mucor 97-1083, 48 h) was “Y (Cidal = MFC/MIC ≦ 4)” and the “Fungicidal?” value ([1]; Mucor ramosissumus 97-1192, 24 h) was “Y (Cidal = MFC/MIC ≦ 4)”. The MFC ([1]; Mucor ramosissumus 97-1192, 24 h, read-out: MFC) was 0.78 µg/mL (≈ 2.09 µM), the MIC ([1]; Mucor ramosissumus 97-1192, 24 h, read-out: MIC) was 0.78 µg/mL (≈ 2.09 µM) and the “Fungicidal?” value ([1]; Mucor ramosissumus 97-1192, 48 h) was “Y (Cidal = MFC/MIC ≦ 4)”. For the same compound, the MFC ([1]; Mucor ramosissumus 97-1192, 48 h, read-out: MFC) was 0.78 µg/mL (≈ 2.09 µM), the MIC ([1]; Mucor ramosissumus 97-1192, 48 h, read-out: MIC) was 0.78 µg/mL (≈ 2.09 µM) and the “Fungicidal?” value ([1]; Mucor sp. 99-932, 24 h) was “Y (Cidal = MFC/MIC ≦ 4)”. For the same compound, the “Fungicidal?” value ([1]; Mucor sp. 99-932, 48 h) was “Y (Cidal = MFC/MIC ≦ 4)”, the “Fungicidal?” value ([1]; Mucor spp. MIC90/MFC90, 24 h) was “Y (Cidal = MFC/MIC ≦ 4)” and the MFC90 ([1]; Mucor spp. MIC90/MFC90, 24 h) was 3.12 µg/mL (≈ 8.36 µM). For the same compound, the “Fungicidal?” value ([1]; Mucor spp. MIC90/MFC90, 48 h) was “Y (Cidal = MFC/MIC ≦ 4)”, the MFC90 ([1]; Mucor spp. MIC90/MFC90, 48 h) was 3.12 µg/mL (≈ 8.36 µM) and the MIC90 ([1]; Mucor, 24 h) was 3.12 µg/mL (≈ 8.36 µM). The MFC ([1]; Mucor, 24 h, Mucor 97-1083) was 3.12 µg/mL (≈ 8.36 µM), the MIC ([1]; Mucor, 24 h, Mucor 97-1083) was 3.12 µg/mL (≈ 8.36 µM) and the MFC ([1]; Mucor, 24 h, Mucor sp. 99-932) was 3.12 µg/mL (≈ 8.36 µM). For the same compound, the MIC ([1]; Mucor, 24 h, Mucor sp. 99-932) was 3.12 µg/mL (≈ 8.36 µM), the MIC90 ([1]; Mucor, 48 h) was 3.12 µg/mL (≈ 8.36 µM) and the MFC ([1]; Mucor, 48 h, Mucor 97-1083) was 3.12 µg/mL (≈ 8.36 µM). It also gave an MIC ([1]; Mucor, 48 h, Mucor 97-1083) of 3.12 µg/mL (≈ 8.36 µM), an MFC ([1]; Mucor, 48 h, Mucor sp. 99-932) of 3.12 µg/mL (≈ 8.36 µM) and an MIC ([1]; Mucor, 48 h, Mucor sp. 99-932) of 3.12 µg/mL (≈ 8.36 µM). For the same compound, the “decrease in brain fungal burden” value [2, 3] was “greater than 10 fold”, the “decrease in kidney fungal burden” value [2, 3] was “greater than 10 fold” and the “brain CFUs compared to placebo” value ([2]; R. oryzae 99-880, monotherapy, organs harvested day 3) was “neither drug alone was able to reduce brain CFUs”.
